Assay results as given in ChEMBL document CHEMBL1146546, “Warangalone, the isoflavonoid anti-inflammatory principle of Erythrina addisoniae stem bark” (J Nat Prod, 2003).

How the values were obtained:
Mus musculus [1] = test: Antiinflammatory activity against TPA-induced ear edema in Swiss mouse chronic dermatitis model assessed as inhibition of increase in ear weight at 0.25 mg/ear relative to control; format: functional
Mus musculus [2] = test: Antiinflammatory activity against Naja mossambica PLA2-induced Swiss mouse paw edema assessed as inhibition of paw volume at 5 mg/kg, ip administered before 30 mins of PLA2 challenge measured after 60 mins relative to control; format: functional; details: route intraperitoneal
Platelet = test: Inhibition of calcium ionophore A-23187/calcium-stimulated 12-hydroxyheptadecatrienoic acid production in human platelets; format: functional
Mus musculus [3] = test: Antiinflammatory activity against TPA-induced ear edema in Swiss mouse chronic dermatitis model assessed as inhibition of increase in ear weight; format: functional
Mus musculus [4] = species on record: Mus musculus; test: Antiinflammatory activity against Swiss mouse chronic dermatitis model assessed as inhibition of TPA-induced tissue myeloperoxidase activity at 0.25 mg/ear applied twice daily for 4 days measured after 6 hrs relative to control; format: functional
Mus musculus [5] = test: Antiinflammatory activity against Naja mossambica PLA2-induced Swiss mouse paw edema assessed as inhibition of paw volume at 5 mg/kg, ip administered before 30 mins of PLA2 challenge measured after 30 mins relative to control; format: functional; details: 0.5 h, route intraperitoneal
[6] = Inhibition of PKC catalytic subunit
[7] = Inhibition of calcium ionophore A-23187/calcium-stimulated LTB4 production in rat polymorphonuclear leukocytes; format: functional
Mus musculus [8] = test: Antiinflammatory activity against TPA-induced ear edema Swiss mouse chronic dermatitis model assessed as inhibition of increase in ear weight at 0.5 mg/ear relative to control; format: functional
Mus musculus [9] = test: Antiinflammatory activity against carrageenan-induced Swiss mouse paw edema assessed as inhibition of paw volume at 10 mg/kg, po administered 1 hr before carrageenan challenge measured after 5 hrs relative to control; format: functional
Mus musculus [10] = test: Antiinflammatory activity against carrageenan-induced Swiss mouse paw edema assessed as inhibition of paw volume at 10 mg/kg, po administered 1 hr before carrageenan challenge measured after 1 hr relative to control; format: functional
Mus musculus [11] = species on record: Mus musculus; test: Antiinflammatory activity against Swiss mouse chronic dermatitis model assessed as inhibition of TPA-induced tissue myeloperoxidase activity at 0.5 mg/ear applied twice daily for 4 days measured after 6 hrs relative to control; format: functional
Mus musculus [12] = test: Antiinflammatory activity against carrageenan-induced Swiss mouse paw edema assessed as inhibition of paw volume at 10 mg/kg, po administered 1 hr before carrageenan challenge measured after 3 hrs relative to control; format: functional

Structure (SMILES) | inhibition (INH) (Mus musculus [1]) [%] | inhibition in vivo at 5 mg/kg (Mus musculus [2]) [%] | inhibition (INH) (Platelet) [%] | ID50 (Mus musculus [3]) [µmol] | inhibition (INH) (Mus musculus [4]) [%] | inhibition in vivo at 5 mg/kg (Mus musculus [5]) [%] | IC50 [6] [µM] | inhibition (INH) [7] [%] | inhibition (INH) (Mus musculus [8]) [%] | inhibition in vivo at 10 mg/kg (Mus musculus [9]) [%] | inhibition in vivo at 10 mg/kg (Mus musculus [10]) [%] | inhibition (INH) (Mus musculus [11]) [%] | inhibition in vivo at 10 mg/kg (Mus musculus [12]) [%]
CC(C)=CCc1c2c(c(O)c3c(=O)c(-c4ccc(O)cc4)coc13)C=CC(C)(C)O2 [WARANGALONE] | 78 | 68 | <20 | 0.54 | 41 | 21 | 3.5 | <20 |  |  |  |  | 
COc1ccc2c(c1)c(CC(=O)O)c(C)n2C(=O)c1ccc(Cl)cc1 [INDOMETHACIN] |  |  |  | 0.29 |  |  |  |  | 82 | 31 | 14 | 36 | 60
CN1CCC(=C2c3ccccc3C=Cc3ccccc32)CC1 [CYPROHEPTADINE] |  | 63 |  |  |  | 66 |  |  |  |  |  |  | 
